Test [1] deals with human Tcf7 promoter. The conditions noted are these: HEK293FT with or without EGFP-C1-AR, 24 h, 500 ng/mL testosterone or 50 nM DHT.
Method: Renilla and Red Firefly luciferase activity, the latter of which was regulated by a 1 kb long WT or mutant Tcf7 promoter sequence lacking putative AREs (FIG. 13A), were simultaneously measured in control or EGFP-C1-AR overexpressing HEK293FT post 24 h stimulation with 500 ng/mL testosterone (T) or 50 nM DHT.
Red Firefly luciferase activity, as regulated by a 1 kb long human WT or mutant Tcf7 promoter sequence lacking putative AREs, was measured in EGFP-C1-AR overexpressing HEK293FT cells post 24 h stimulation with 500 ng/mL testosterone or vehicle control.
WT or mutated human Tcf7 promoter sequence of one kb upstream from its transcriptional start site was cloned into the pMCS-Red Firefly Luciferase vector (Thermo Fisher). Mutants lacked individual (“Mut 1-4”) or all putative AR binding sites. Briefly, 40,000 HEK293FT cells were grown on a 96 well plate at 80% confluence. Cells were transfected with 200 ng of pEGFP-C1-human AR (a gift from Michael Mancini, Addgene plasmid #28235) and indicated Tcf7 luciferase reporter plasmids using Lipofectamine 2000 (Thermo Fisher) on Day 0 in triplicates. Renilla luciferase gene expression was used to ensure transfection efficiency (Thermo Fisher). […] Cells were then harvested and luciferase activity was analyzed by using Dual-Luciferase Reporter Assay System (Promega).
In test [2] the test system is Tcf7. The experiment in a line: qPCR of naive CD8+ T cells stimulated with testosterone, type I IFN or both. Type of test: cell-based, mouse. The protocol:
See methods for details. […] Blue, Male; Pink, Female.
Mouse spleens and tumors were mechanically disrupted, with the latter additionally subjected to digestion with 1 mg/mL Collagenase D (Roche) for 30 min at 37° C. while shaken at 125 rpm. Excess volume of ice-cold PBS with 2% bovine serum albumin was used to inactivate the enzymatic activity. Red Blood Cell Lysis Buffer (BioLegend) was utilized on tissues before they were passed through 70 μm filters to prepare single cell suspensions. For cytokine production experiments, cells were re-stimulated by 50 ng/mL PMA (Sigma), 1 μg/mL Ionomycin (Sigma) and 1× Brefeldin A (BioLegend) in a 48-well plate for 2 hours at 37° C. For in vitro cultures, purified CD8^+ T cells were left untreated or stimulated with 50 ng/mL testosterone (Sigma) and/or 50 U/mL mouse IFN alpha A (PBL Assay Science). Cells were stained at 4° C. with eFluor506 fixable viability dye for 10 minutes (Invitrogen), followed by extracellular surface markers and FcR block concurrently for 30 minutes. […]
RNA was extracted from FACS/MACS-isolated CD8^+ T cells and reverse-transcribed using RNeasy Micro Kit (Qiagen) and SuperScript™ IV VILO™ Master Mix with ezDNase™ Enzyme (ThermoFisher Scientific), respectively. Quantitative PCR was performed with the following primers: […]
On the technique in general: Real-time PCR tracks product formation cycle by cycle.

Test [3] deals with AR-overexpressing Jurkat cells. As to conditions: 100 nM, re-stimulated Days 0, 3, 6, over 9 days.
Method: Data are mean±SEM. Statistical significance was determined by Student's t test. **p≤0.01, ****p≤0.0001.
Empty vector and androgen receptor-expressing Jurkat cells were seeded into six well plates (Gibco) at 2×10^5 cells per well and treated with 100 nM testosterone (Sigma) or DHT (Millipore), alongside methanol vehicle control (Thermo Fisher). Every three days, cells were counted using the BioRad TC20 automated cell counter, passaged, and re-stimulated with the same androgen concentrations over a time course of 3, 6, and 9 days.
The subject of test [4] is CD8+ tumor-infiltrating lymphocytes (TILs) from female patients with bladder cancer. The experiment in a line: AR blockade of in vitro expanded CD8+ bladder cancer TILs, flow cytometry. As to conditions: enzalutamide (50 uM in the presence of 10 nM DHT; varying doses), ex vivo expanded TILs. Type of test: cell-based, human. From the text: FIGS. 19A, 19B, 19C, 19D and 19E show androgen receptor blockade of in vitro expanded CD8+ bladder cancer TILs promotes effector differentiation and function. […] Statistical significance in FIGS. 19A-C determined by repeated measures ANOVA. P values were corrected for multiple hypothesis testing using the Dunnett method. Statistical significance in FIG. 19E determined by Student's paired t test. *P≤0.05.
In FIG. 19, we investigated the impact of androgen receptor (AR) blockade on in vitro expanded CD8^+ tumor-infiltrating lymphocytes (TILs) from female patients with bladder cancer, focusing on effector differentiation and function. Panel A (FIG. 19A) illustrates the effect of dihydrotestosterone (DHT) treatment on the CD8+GZMB^high population within ex vivo expanded TILs. […] Panel D (FIG. 19D) assesses IFNγ production in CD8+ TILs after PMA/ionomycin/golgi block stimulation with or without enzalutamide. Lastly, Panel E presents the median fluorescence intensity (MFI) of IFN-gamma within the CD8+GZMB^high population. Statistical significance in Panels A-C was determined by repeated measures ANOVA, with P values corrected for multiple hypothesis testing using the Dunnett method. In Panel E (FIG. 19E), statistical significance was determined by Student's paired t test (*P≤0.05).
A general note: In flow cytometry, cells or beads pass a laser one at a time.

Test [5] concerns MB49 mouse urothelial carcinoma cells. The experiment in a line: MB49 tumor growth in WT mice after daily oral enzalutamide. Type of test: in vivo. The conditions noted are these: male WT mice, enzalutamide 25 mg/kg daily oral gavage from Day 5, vs vehicle. The text has this:
FIGS. 5A, 5B, 5C, 5D, 5E, 5F, 5G, 5H, 5I, and 5J show T cell intrinsic AR signaling contributes to male bias in tumor growth and accumulation of CD8^+ progenitor exhausted T cells. MB49 growth and circulating free testosterone levels in (5A) Four Core Genotype or (5B) WT mice three weeks post sham or surgical castration (cast). […] LNCaP lysates were used as the positive AR control. Rep, replicate. […] For tumor growths, mean area (mm^2)±SEM are reported, with statistical significance determined using the repeated measures two-way ANOVA. n=6-11 mice per group.
MB49 (a gift from C. Voelkel-Johnson from the Medical University of South Carolina) and BKL171 mouse urothelial carcinoma cells were cultured in Dulbecco's modified Eagle's medium with 10% heat-inactivated fetal bovine serum and 1% penicillin/streptomycin. 5×10^5 tumor cells were resuspended in 100 μL ice cold PBS for subcutaneous injection into the right flank of a mouse. For antibody-mediated T cell depletion experiments, mice were injected intraperitoneally with 200 μg of anti-mouse CD4 (Clone GK1.5, BioXCell) and/or CD8 neutralizing antibodies (Clone 53-6.7, BioXCell), followed by 100 μg thereafter on the indicated days. […] Tumor surface area (width×length mm^2) was measured using an electronic caliper starting on Day 4 post implantation.

The record followed here is US20240382459A1, “MECHANISMS OF ANDROGEN RECEPTOR-CENTERED TRANSCRIPTIONAL NETWORKS IN REGULATING CD8+ T CELL EXHAUSTION AND THERAPEUTIC APPLICATIONS IN CANCER” (Ohio State Innovation Foundation, priority 2023, published 2024).

SMILES strings stand for the structures.

As to `C[C@]12CC[C@H]3[C@@H](CCC4=CC(=O)CC[C@@]43C)[C@@H]1CC[C@@H]2O` [testosterone], the “Tcf7 promoter activity (Red Firefly luciferase)” value in test [1] was “stimulated Tcf7 promoter activity in an AR dependent manner”. The “Ar expression (qPCR)” value in test [2] (female CD8+ T cells, testosterone) is on record as “induction of Ar expression”. For the same compound, the “Tcf7 expression (qPCR)” value in test [2] (male CD8+ T cells, acute testosterone exposure, 6 hours) is listed as “significantly increased”. The proliferation entry in test [3] was “decreased proliferation”.
Regarding `CNC(=O)c1ccc(N2C(=S)N(c3ccc(C#N)c(C(F)(F)F)c3)C(=O)C2(C)C)cc1F` [enzalutamide], in test [4], the “effector differentiation and function of CD8+ TILs (GZMB high frequency, PD-1 high TOX high frequency, IFNγ)” value was “promoting effector differentiation and function”. The MB49 tumor growth result in test [5] is “partial protection against tumor growth”.
Consider `C[C@]12CCC(=O)C[C@@H]1CC[C@@H]1[C@@H]2CC[C@]2(C)[C@@H](O)CC[C@@H]12` [DHT, dihydrotestosterone], for which, in test [1], the “Tcf7 promoter activity (Red Firefly luciferase)” value is given as “stimulated Tcf7 promoter activity in an AR dependent manner”. Moreover, the proliferation entry in test [3] is recorded as “decreased proliferation”.
